Results published in paper PMC11574045, “A cofactor-induced repressive type of transcription factor condensation can be induced by synthetic peptides to suppress tumorigenesis” (The EMBO Journal, 2024).
Ends that are not written are not given here.

Key:
TEAD4 [1] = target: T1, TEAD4 (Homo sapiens, UniProt Q15561); assay: In vitro DSS-cross-linking assay of TEAD4 oligomerization; type: biochemical; conditions: 5 µM protein, 30 min 30 °C, DSS 3 mM, SDS-PAGE
T1 construct: His; made in house; host or cells: Escherichia coli BL21(DE3)
T1 sequence (Q15561 whole entry): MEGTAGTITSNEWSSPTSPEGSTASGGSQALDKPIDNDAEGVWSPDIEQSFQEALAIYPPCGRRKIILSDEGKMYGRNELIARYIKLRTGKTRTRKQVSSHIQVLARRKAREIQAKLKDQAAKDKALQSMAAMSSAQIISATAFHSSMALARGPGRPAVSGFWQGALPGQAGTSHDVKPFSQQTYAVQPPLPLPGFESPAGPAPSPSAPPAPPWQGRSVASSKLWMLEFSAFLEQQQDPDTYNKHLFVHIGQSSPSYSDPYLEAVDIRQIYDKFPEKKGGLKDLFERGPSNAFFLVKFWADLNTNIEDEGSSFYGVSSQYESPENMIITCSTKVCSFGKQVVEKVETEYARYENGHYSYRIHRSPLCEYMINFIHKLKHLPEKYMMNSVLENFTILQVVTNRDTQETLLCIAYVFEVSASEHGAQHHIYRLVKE
Method: The deployed cross-linking reaction system contained 20 mM HEPES pH 7.5, 250 mM NaCl and 5 µM tested proteins with a total volume of 20 µl. This system was allowed to incubate for 30 min at 30 °C, and then combined with disuccinimidyl suberate (DSS) at a final concentration of 3 mM, and the mixtures were further incubated at 4 °C for 20 min. The cross-linking reaction was stopped by adding 1 M Tris HCl (pH 8.5) to the incubated mixture at 4 °C, and allowing the mixture to sit for 10 min, and then boiling it in 1×SDS loading buffer to provide samples for SDS-PAGE analysis.

TEAD4 [2] = target: T1, TEAD4; assay: FRAP of TEAD4 droplets formed from purified protein; type: biochemical; conditions: purified TEAD4 protein treated with FAM-GLUP
Text: (A) Schematic of the strategy of the initial version of a linker peptide termed “glup”. […] The two TEAD4 molecules are colored cyan and blue, respectively. […] Monomer, dimer, and oligomer TEAD4 bands are labeled. (D) Schematic illustration of an optimized version of the linker peptide (referred to as GLUP). […] (F) Comparison of glup with GLUP. MW, molecular weight. […] The quantification graph represents the data collected from 10 images (n = 10). Data shown as means ± SD represent the representative results from two independent experiments. Significance was tested using one-way ANOVA, followed by the Tukey’s post-hoc test. *p < 0.05; ****p < 0.0001. NaCl (+), 20 mM; NaCl (++), 150 mM; NaCl (+++), 500 mM. Scale bar, 10 μm. […] For each photobleached spot, the fluorescence recovery curve was traced. The graph represents the data collected from 5 droplets (n = 5). t1/2: fluorescence recovery time; Rf: mobile fraction. […] The quantification graph represents the data collected from 9 cells (n = 9). […] The data were analyzed using one-way ANOVA, followed by the Tukey’s post-hoc test. n.s., no significance; ****p < 0.0001. […] Three images were gradually taken during pre-bleach, bleaching pulses, followed by fluorescence recovery as indicated on the graph (left). […] White circles indicated the bleaching condensates. t1/2: fluorescence recovery time; Rf: mobile fraction. […]

HGC-27 cells = assay: RNA sequencing; type: cell-based, human; conditions: GLUP-treated HGC-27 cells
Method: For RNA sequencing, HGC-27 cells in 6-well plates were treated with GLUP peptide at 10 μg/ml for 48 h. The stocking buffer (20 mM HEPES pH 7.5, and 100 mM NaCl) was used as a negative control. Total RNA was extracted from at least two biological replicates. Extracted RNA was monitored for its quality using a 2100 Expert Bioanalyzer (Agilent) before being sent for library preparation and RNA sequencing (Majorbio). The RNA sequencing data were analyzed on a free online Majorbio I-Sanger Cloud Platform (www.majorbio.com).

Pharmacokinetics assay = type: in vivo, mouse; conditions: 10 mg/kg
Method: Blood samples were obtained at 0, 0.17, 0.33, 0.5, 0.67, 0.83, 1, 2, 4, 6, 8, 10, 12, and 24 h after intraperitoneally injected administration of FAM-GLUP. These blood samples were then allowed to coagulate at room temperature for 4 h, and then were subjected to centrifugation at 3000 × g at 4 °C for 10 min in order to separate the plasma. The plasma samples were analyzed using an Ultra Performance Liquid Chromatography system (UPLC, Waters, Milford, MA). Pharmacokinetic parameters were calculated using Phoenix^TM WinNonlin® software (version 6.1.0.173; Pharsight Corp., Mountain View, CA).

TEAD4-DNA = target: T2, TEAD4-DNA (Homo sapiens, UniProt Q15561); assay: DAPI imaging of M-CAT DNA organization with purified proteins; type: biochemical; conditions: GLUP 1 μg/ml (0.5 μM)
T2 construct: His; made in house; host or cells: Escherichia coli BL21(DE3)
T2 sequence (Q15561 whole entry): as above
Method: LLPS is considered as principle for chromosome compartmentalization and condensation (Hildebrand and Dekker, [2020]; Shin et al, [2018]). […] To test this hypothesis, we used confocal microscopy to observe the morphology of M-CAT DNA (Fig. 4D). […] When VGLL4 protein was added into the mixture, the DNA chains appeared more aggregated and tangled (Fig. 4D).
(§1) To confirm cellular entry of GLUP, we performed immunostaining of live cells treated with a fluorescein-labeled version of the peptide (FAM-GLUP). […] We then examined the potential effect of GLUP on TEAD4-mediated perturbation of DNA conformation.

chromatin = assay: N-SIM imaging of DAPI-labeled chromatin in cells; type: cell-based; conditions: GLUP 1 μg/ml (0.5 μM)
Text: Next, we used structure illumination microscopy (N-SIM) to examine deformation of DAPI-labeled chromatin in cells overexpressing VGLL4. […] To further address this issue, we performed colloidal gold staining using TEAD4 antibody to observe the status of chromatin around TEAD4.
as §1

Substance: RRVCVHFHFSLSLR-NH2 (C-terminus assumed) [glup]
- TEAD4 oligomerization in DSS cross-linking (TEAD4 [1]): induced TEAD4 oligomerization in a concentration-dependent manner
- TEAD4 oligomerization in DSS cross-linking (TEAD4 [1]; listed as GLUP): strongly induced TEAD4 oligomerization
- mobile fraction (FRAP) (TEAD4 [2]): about 86%
- GSEA of TEAD signature genes (HGC-27 cells): negative enrichment of TEAD signature genes
- half-life (Pharmacokinetics assay; mouse peripheral blood/plasma, FAM-GLUP intraperitoneal, sampling 0–24 h, UPLC, WinNonlin): over 4 h
- plasma levels of GLUP, max (Pharmacokinetics assay; mouse, as read by Referee #1 from Supp. Fig. 6K of the submitted version): around 0.15 µg/ml
- Effect on TEAD4-mediated DNA conformation (TEAD4-DNA): strongly promoted TEAD4-mediated formation of DNA aggregations and tangles
- Effect on chromatin distribution (chromatin): substantially disturbed chromatin distribution and organization
